Reference: patent US7670631B2, “Method for the prevention of malaria infection of humans by hepatocyte growth factor antagonists” (ALFAMA—Investigação e Desenvolvimento de Produtos …, priority 2003, dated 2010)

What was measured:
ISIF/HGF secretion = ISIF/HGF secretion by HepG2 cells after wounding (infection susceptibility assay); assay type: cell-based; conditions: HepG2 cells treated, washed, incubated with P. berghei sporozoites to generate conditioned medium
Procedure: HepG2 cells were treated with Brefeldin-A (BFA), an inhibitor of protein transport to the Golgi vesicles that blocks constitutive secretion in eukaryotic cells. BFA treated cells, and untreated control cells, were then washed and incubated with P. berghei sporozoites to generate conditioned medium. […] The effect of BFA was dose-dependent. Supernatants of mechanically wounded HepG2 cells were collected after various time periods of incubation. ISIF/HGF levels, as determined by the infection susceptibility assay (FIG. 2c) and western blot analysis, (FIG. 2d) increased with time. The ISIF activity was abolished by the addition of neutralizing anti-HGF antibodies (FIG. 2c).

P. berghei sporozoites [1] = test: Genistein effect on hepatic infection with Plasmodium berghei sporozoites in vitro (EEF count in HepG2 cells); assay type: cell-based; conditions: Genistein at 25 μM, 24 h with P. berghei sporozoites
Procedure: HepG2 cells were maintained in DMEM 10% FCS, 1 mM glutamine. P. berghei sporozoites were obtained from dissection of infected Anopheles stephensi mosquito salivary glands. P. berghei sporozoites ([…]) were added to monolayers of 2×10^5 HepG2 cells (in the presence or not of Genistein) for 24 h before fixation and staining with anti-EEF mAb (2E6), followed by anti-mouse IgG-FITC antibodies. Infection was quantified by counting the number of EEFs per coverslip.

HGF receptor = test: ISIF activity of medium conditioned by primary hepatocytes; assay type: cell-based
Procedure: (§1) Supernatant were generated from cultures containing the mouse hepatoma cells Hepa1-6 and P. yoelii sporozoites (mH/Py conditioned media). To detect ISIF activity, fresh hepatoma cells were incubated with mH/Py conditioned media for different periods of time. Cells were then washed and incubated with P. yoelii sporozoites. Infection was examined 24 h later by staining the exo-erythrocytic forms of the parasite (EEFs). As controls, we used Hepa1-6 cells pre-incubated for identical periods of time with fresh medium before addition of P. yoelii sporozoites. Pre-treatment of hepatocytes with mH/Py conditioned medium increases the level of infection (FIG. 1a). […] Since sporozoites are obtained by dissection of infected mosquito salivary glands, we also tested conditioned media that were obtained from cultures containing hepatoma cells and material of salivary glands from uninfected mosquitoes. Medium conditioned in this way was ineffective (FIG. 1b).
Primary hepatocytes were obtained by liver perfusion. […] Cells that have been traversed by sporozoites can be detected using a cell-impermeant fluorescent tracer macromolecule that only penetrates into wounded cells. P. yoelii sporozoites were incubated with Hepa1-6 cells in the presence of fluorescent-labelled dextran before staining for HGF. […]

MET = target: T1, MET (Homo sapiens, UniProt P08581); conditions: cited from earlier work
T1 construct: host or cells: MLP-29 cells, GTL-16 gastric carcinoma cells and NIH3T3 fibroblasts are named in the same paragraph

[2] = in vivo; cited from earlier work
Plasmodium berghei = conditions: cited from earlier work
P. berghei sporozoites [3] = test: Infection susceptibility (ISIF) assay: HepG2 cells pre-incubated with growth factors or conditioned medium plus antibodies before P. berghei sporozoites; assay type: cell-based, Plasmodium berghei; conditions: HepG2 cells pre-incubated before addition of P. berghei sporozoites
Procedure: as §1
To test whether ISIF activity was mediated by known growth factor, two well-characterized growth factors known to be released after injury were tested: basic fibroblast growth factor (bFGF) and hepatocyte growth factor (HGF). HepG2 cells were pre-incubated with human HGF or bFGF before addition of P. berghei sporozoites. As positive and negative controls, cells were incubated with hH/Pb conditioned medium or fresh medium, respectively. […]

T1 sequence (P08581 25-1390): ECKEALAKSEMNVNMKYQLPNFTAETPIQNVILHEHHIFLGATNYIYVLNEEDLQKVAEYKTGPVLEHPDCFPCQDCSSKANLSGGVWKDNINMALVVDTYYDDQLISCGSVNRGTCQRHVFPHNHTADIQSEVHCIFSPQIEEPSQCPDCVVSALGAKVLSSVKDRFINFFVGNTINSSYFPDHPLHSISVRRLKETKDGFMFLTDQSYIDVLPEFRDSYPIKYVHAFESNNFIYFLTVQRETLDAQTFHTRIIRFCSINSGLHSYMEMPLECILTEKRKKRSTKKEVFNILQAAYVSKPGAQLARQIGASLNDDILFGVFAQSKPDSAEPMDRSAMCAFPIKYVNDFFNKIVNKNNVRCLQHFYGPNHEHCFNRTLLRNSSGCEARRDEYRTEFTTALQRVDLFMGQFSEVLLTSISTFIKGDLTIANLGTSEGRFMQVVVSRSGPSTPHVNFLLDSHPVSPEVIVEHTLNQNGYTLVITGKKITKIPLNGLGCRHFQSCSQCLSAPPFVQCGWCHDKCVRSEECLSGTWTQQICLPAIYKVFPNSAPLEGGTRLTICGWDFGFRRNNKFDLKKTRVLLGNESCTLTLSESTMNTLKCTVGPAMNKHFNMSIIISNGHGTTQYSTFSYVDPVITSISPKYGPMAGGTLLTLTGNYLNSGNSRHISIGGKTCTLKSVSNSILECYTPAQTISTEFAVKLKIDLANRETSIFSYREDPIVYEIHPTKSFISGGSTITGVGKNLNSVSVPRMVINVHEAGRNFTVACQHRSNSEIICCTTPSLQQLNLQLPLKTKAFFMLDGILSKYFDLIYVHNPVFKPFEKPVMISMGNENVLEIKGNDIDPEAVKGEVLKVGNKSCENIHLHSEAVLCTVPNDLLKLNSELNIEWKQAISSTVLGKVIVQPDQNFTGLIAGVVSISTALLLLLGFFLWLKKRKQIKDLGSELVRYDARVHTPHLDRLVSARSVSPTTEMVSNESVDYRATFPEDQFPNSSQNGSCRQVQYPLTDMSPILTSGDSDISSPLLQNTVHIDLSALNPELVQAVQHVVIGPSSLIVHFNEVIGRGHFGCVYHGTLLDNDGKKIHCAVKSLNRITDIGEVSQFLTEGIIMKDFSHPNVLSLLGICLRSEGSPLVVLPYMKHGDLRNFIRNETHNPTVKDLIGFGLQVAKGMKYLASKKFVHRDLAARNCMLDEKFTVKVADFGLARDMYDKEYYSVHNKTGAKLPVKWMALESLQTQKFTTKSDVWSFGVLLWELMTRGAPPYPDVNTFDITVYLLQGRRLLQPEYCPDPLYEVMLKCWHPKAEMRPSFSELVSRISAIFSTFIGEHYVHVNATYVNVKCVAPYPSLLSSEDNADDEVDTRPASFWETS

With C[C@H]1CCC/C=C/[C@@H]2C[C@H](O)C[C@H]2[C@H](O)/C=C/C(=O)O1 [BFA, Brefeldin-A] the ISIF/HGF secretion (ISIF/HGF secretion) was “inhibits ISIF/HGF secretion”.

For O=c1c(-c2ccc(O)cc2)coc2cc(O)cc(O)c12 [Genistein, genistein], the “reduction in infection (number of EEFs per coverslip)” value (P. berghei sporozoites [1]) was “approximately 75%”.

In the case of COC(=O)[C@@]1(O)C[C@H]2O[C@]1(C)n1c3ccccc3c3c4c(c5c6ccccc6n2c5c31)C(=O)NC4 [K252a], the ISIF activity (HGF receptor) is listed as “abolished ISIF activity” and the “concentration inhibiting Met mediated signals” value (MET) is listed as “nanomolar concentrations”.

For OC(c1cc(C(F)(F)F)nc2c(C(F)(F)F)cccc12)C1CCCCN1 (stereo not shown) [Mefloquine, mefloquine], the elimination half life [2] is given as “two to three”.

In the case of COc1cc(NC(C)CCCN)c2ncccc2c1 (stereo not shown) [Primaquine, primaquine], the half life [2] is given as “very short”.

In the case of C[C@@H]1C[C@H]2O[C@@H]2/C=C\C=C\C(=O)Cc2c(Cl)c(O)cc(O)c2C(=O)O1 [radicicol], the “activity against Plasmodium berghei in mice” value (Plasmodium berghei) is given as “moderately active”.

In the case of COc1cc(C)c2c(Oc3cccc(C(F)(F)F)c3)c(OC)cc(NC(C)CCCN)c2n1 (stereo not shown) [tafenoquine], the terminal half life [2] is listed as “about 14 days”.

In the case of “HGF: hepatocyte growth factor, ligand of the receptor protein tyrosine kinase Met”, the “effect on infection of pre-incubation of HepG2 cells with growth factor” value (P. berghei sporozoites [3]) is reported as “increased infection to a greater extent than the hH/Pb conditioned medium”.

With bFGF: basic fibroblast growth factor the “effect on infection of pre-incubation of HepG2 cells with growth factor” value (P. berghei sporozoites [3]) was “ineffective”.
